PMC11396746, “Stability Evaluation and Pharmacokinetic Profiling of Vepdegestrant in Rodents Using Liquid Chromatography–Tandem Mass Spectrometry” (Molecules, 2024)

Legend:
Type in all cases: in vitro ADME
[1] = Stability of vepdegestrant in rat plasma under storage conditions (method validation)
Description: The results were within ±15% RE under all storage conditions, including at room temperature for 6 h, after three freeze–thaw cycles, at −20 °C for 4 weeks, and in an autosampler for 24 h after sample preparation.
Stability was tested for vepdegestrant in biological samples at LQC and HQC under specific conditions: Short-term stability at room temperature for 6 h, three freeze–thaw cycles, long-term stability at −20 °C for 4 weeks, and pretreated samples in an autosampler for 24 h. The stability test was performed via five replicates analysis, with the acceptance criteria being an RE within ±15% at LQC and HQC levels.

[2] = Plasma protein binding (PPB) using a rapid equilibrium dialysis device
Description: Low plasma stability was predicted based on pH stability results. […] In addition, we evaluated the plasma protein binding (PPB) of vepdegestrant using a rapid equilibrium dialysis device. However, the concentration of vepdegestrant in the buffer was below the quantification limit, making it impossible to determine an accurate binding ratio. This phenomenon persisted even when the administered concentration was increased from 2 to 10 µg/mL or when the plasma was diluted up to 100-fold. […] Furthermore, the recovery of vepdegestrant in the plasma after a 4-h incubation was greater than 85%. The unrecovered fraction may result from nonspecific binding to the device and membrane. Further studies should be conducted using alternative methods.

[3] = Metabolic stability in rat liver microsomes
Description: The metabolic stability of vepdegestrant was evaluated using liver microsomes obtained from mice, rats, dogs, and humans. Vepdegestrant was dissolved in DMSO to prepare a stock solution with a concentration of 0.1 mM. Microsomes (25 µL) were spiked into PBS (440 µL) and pre-incubated for 5 min. After pre-incubation, vepdegestrant stock solution (5 µL) was added, followed by an NADPH regenerating system (27 µL) to initiate the reaction. The composition of the reaction mixture was as follows: Vepdegestrant (final concentration 1 µM), mouse, rat, dog, human liver microsomes (protein concentration: 1 mg/mL), NADPH regenerating system (final concentrations: 1.3 mM NADP^+, 3.3 mM glucose-6-phosphate, 0.4 U/mL glucose-6-phosphate dehydrogenase, and 3.3 mM magnesium chloride), and PBS (pH 7.4). At 5, 15, 30, and 60 min after starting the reaction, aliquots (50 µL) were taken and added to ice-cold ACN with an IS (200 µL) to terminate the reaction. For the zero-time samples, aliquots were taken before adding NADPH. Subsequently, the mixture was vigorously mixed for 10 min and centrifuged at 17,054 g under 25 °C for 10 min. For analysis, 5 µL of the supernatant was injected into the HPLC-MS/MS system. In addition, the stability of vepdegestrant in rat liver microsomes was assessed in the absence of NADPH or NADPH and microsomes (PBS only). The experimental procedure was the same as described for the microsomal stability test, except that an equivalent volume of PBS was added instead of NADPH or microsomes.

Stability in Rat Plasma ([1]; 1 month at −20 °C, nominal 3 ng/mL): 98.83 ± 12.58% | Stability in Rat Plasma ([1]; 1 month at −20 °C, nominal 900 ng/mL): 104.3 ± 8.5% | Stability in Rat Plasma ([1]; 6 h at room temperature (25 °C), nominal 3 ng/mL): 100.3 ± 7.1% | Stability in Rat Plasma ([1]; 6 h at room temperature (25 °C), nominal 900 ng/mL): 99.59 ± 4.12% | Stability in Rat Plasma ([1]; Freeze–thaw three-cycle (−20 °C → RT), nominal 3 ng/mL): 98.70 ± 7.09% | Stability in Rat Plasma ([1]; Freeze–thaw three-cycle (−20 °C → RT), nominal 900 ng/mL): 94.98 ± 1.40% | Stability in Rat Plasma ([1]; Processed sample in 10 °C autosampler for 24 h, nominal 3 ng/mL): 99.86 ± 0.84% | Stability in Rat Plasma ([1]; Processed sample in 10 °C autosampler for 24 h, nominal 900 ng/mL): 92.18 ± 6.32% | recovery at 4 h ([2]; plasma in a rapid equilibrium dialysis device, after 4-h incubation in rapid equilibrium dialysis device, read-out: recovery of vepdegestrant in the plasma): > 85% | fraction unbound at 4 h ([2]; plasma, calculated assuming buffer concentration at the lowest quantifiable limit, actual PPB likely higher): 0.001 | half-life at 1 µM ([3]; Sprague-Dawley, liver microsomes, pH 7.4, rat microsomes, 1 μM): 36.9 min | vepdegestrant remaining ([3]; rat microsomes in the absence of NADPH, 1 h incubation): 86.6% | remaining percentage of unconverted vepdegestrant ([3]; rat microsomes, 60 min, 1 μM, with NADPH): 32.2%
SMILES: O=C1CC[C@H](N2Cc3cc(N4CCN(CC5CCN(c6ccc([C@@H]7c8ccc(O)cc8CC[C@@H]7c7ccccc7)cc6)CC5)CC4)ccc3C2=O)C(=O)N1 [vepdegestrant, Vepdegestrant]
